From publication PMC11019550, “Potent Inhibition of E. coli DXP Synthase by a gem-Diaryl Bisubstrate Analog” (ACS Infectious Diseases, 2024)

Legend:
EcDXPS = biological target: T1, EcDXPS (Escherichia coli, UniProt P77488); assay: DXPS-IspC coupled assay, apparent Ki on wildtype EcDXPS; format: biochemical; details: EcDXPS 100 nM, 10 min preincubation; Morrison equation fit; read-out: Ki^app
T1 construct: made in house
Procedure: To determine inhibitor potency, we used the DXPS-DXP reductoisomerae (DXPS-IspC) coupled assay to measure the activity of recombinant purified EcDXPS[24],[25],[31],[44],[50] in the presence of inhibitors. Reactions were initiated by the addition of substrates following a short preincubation of the inhibitor with enzymes, and initial velocities were determined by monitoring reduced nicotinamide adenine dinucleotide phosphate (NADPH) absorbance at 340 nm. Apparent Ki values were determined by fitting initial velocity data to the Morrison equation,[64],[65] which accounts for the tight-binding nature (Ki^app/[E]total < 10)[66] of inhibitors included in this study and allows for rigorous comparison of inhibitor potencies. […] Inhibitor activities were rationalized based on the predictions made from molecular docking of the corresponding PLThDP adducts into the DXPS active site.
All compounds in this study were evaluated as DXPS inhibitors using the DXPS-IspC coupled assay as previously reported.[24] […] The DXPS reaction was initiated by the addition of substrates (50 μM pyruvate and 500 μM D-GAP). The initial rate of depletion of NADPH was monitored at 340 nm and was used to calculate the initial rate of DXP formation in the presence or absence of inhibitor. Initial rates of DXP formation were plotted as a function of [inhibitor], and Ki^app was determined by fitting the data to the Morrison equation (eq 1)[64],[65] in GraphPad Prism. This approach was deemed appropriate as the concentration of free inhibitor cannot be assumed to remain constant for most of these analogs in which Ki^app values approach the concentration of DXPS.[88],[89] Error is reported as standard deviation from three replicates. Active enzyme concentration ([E]T) was determined following Copeland’s method using 8 (Figure S2B).[88]
The coupled assay was initiated by adding 20 μL of a 10× substrate stock to the preincubated E + I mixture to give a final volume of 200 μL. The final concentration of D-GAP was held constant at 500 μM, and [pyruvate] was added to final concentrations between 0 and 250 μM. The initial rate of NADPH depletion in the IspC-coupled reaction was monitored at 340 nm and was used to calculate the initial rate of DXP formation in the presence or absence of inhibitor. Initial rates were plotted as a function of [pyruvate]. […] Model discrimination analysis employing the Akaike information criterion was performed as well as Lineweaver–Burk analysis to determine the mixed model as the best fit. In all cases, error bars represent the standard deviation from three replicates.

WT EcDXPS = biological target: T2, WT EcDXPS (Escherichia coli, UniProt P77488); assay: Circular dichroism titration (PLThDP formation, apparent KD) on WT EcDXPS; format: binding
T2 construct: made in house
From the text: The X-ray structure obtained from cocrystallization of DrDXPS with 1 (Figure 2) indicates the formation of the PLThDP adduct by reaction of the acetylphosphonate mimic of pyruvate with the C2 carbanion of ThDP. We reasoned that 8 should also engage the pyruvate binding site and react with ThDP to form a PLThDP adduct. Circular dichroism (CD) is a powerful tool that can be used to detect LThDP and LThDP-like adducts on thiamin-dependent enzymes,[56],[67]−[75] including DXPS.[31],[36],[43],[44],[49]−[52],[76] DXPS bound to ThDP (E-ThDP) is characterized by a CD λmin at 320 nm, indicative of the 4′-aminopyrimidine (AP) tautomer of ThDP (Figure 8A). Upon addition of pyruvate to E-ThDP, a new positive signal emerges at 313 nm, indicating the formation of LThDP in its 1′,4′-iminopyrimidine (IP) form. Similarly, upon addition of AP-based inhibitors to E-ThDP, the E-PLThDP adduct is formed, characterized by an increasing, broad CD signal.[69],[77],[78] Determination of apparent KD of PLThDP by plotting the CD signal corresponding to PLThDP versus [MAP] has been used as a proxy for PLThDP affinity.[77],[78] To confirm that 8 reacts with ThDP to form PLThDP in the DXPS active site, the change in CD signal upon addition of 8 (0.25–30 μM) to EcDXPS (30 μM) was measured. […] Plotting the CD signal at 294 nm versus affords a curve that approaches the limiting asymptotes defined by infinitely tight binding (Figure 8C),[79],[80] which is expected for this nanomolar inhibitor under the conditions of high [DXPS] required for this method. Since in this case [DXPS] ≫ KD^app, an accurate determination of KD^app is not possible, and data were fit to a quadratic equation to give an estimated upper limit for the value of KD^app (≤0.04 ± 0.01 μM). Addition of 10 to DXPS also results in an increased, broad CD signal (Figure S7A), indicating PLThDP formation. […]
CD titrations of 8 and 10 onto WT, R99A, and R478A EcDXPS variants were conducted at 25 °C under aerobic conditions in 1.5 mL solutions containing 30 μM EcDXPS in 50 mM HEPES pH 8, 100 mM NaCl, 1 mM MgCl2, and 0.2 mM ThDP. […] The CD signals at 294 nm determined from the difference spectra obtained by subtracting the signal of E-ThDP at 294 nm were plotted as a function of [inhibitor] and fit to (1) the quadratic equation described in eq 2 (8 on WT DXPS), where E is the concentration of DXPS taking into account stoichiometric binding and CDmax is the maximal CD signal, or (2) a one-site specific binding curve (all other experiments) using GraphPad Prism Version 9 to calculate an apparent KD. Experiments were conducted in triplicate and the standard error was calculated. […]
At the conclusion of the titration described above, the CD signal at 313 nm (previously characterized for LThDP) was recorded. […]

Structure (SMILES): CC(=O)P(=O)(O)OCCc1cn(C(Cc2ccccc2)(Cc2ccccc2)C(=O)O)nn1 [Compound 8]
- Ki (EcDXPS): 2.9 ± 0.5 nM
- Kd (WT EcDXPS): ≤ 40 nM
- change in PLThDP CD signal upon addition of 1 mM pyruvate (WT EcDXPS; WT EcDXPS 30 μM, inhibitor 30 μM): negligible shift in the CD signal
